Experimental data taken from patent US20140309210A1, “INDAZOLE COMPOUNDS, COMPOSITIONS AND METHODS OF USE THEREOF” (Genentech, Inc., priority 2011, published 2014).

Target: T1, purified ITK (Invitrogen PV3875) (Homo sapiens, UniProt Q08881)
T1 construct: purchased Invitrogen PV3875
T1 sequence (Q08881 1-620): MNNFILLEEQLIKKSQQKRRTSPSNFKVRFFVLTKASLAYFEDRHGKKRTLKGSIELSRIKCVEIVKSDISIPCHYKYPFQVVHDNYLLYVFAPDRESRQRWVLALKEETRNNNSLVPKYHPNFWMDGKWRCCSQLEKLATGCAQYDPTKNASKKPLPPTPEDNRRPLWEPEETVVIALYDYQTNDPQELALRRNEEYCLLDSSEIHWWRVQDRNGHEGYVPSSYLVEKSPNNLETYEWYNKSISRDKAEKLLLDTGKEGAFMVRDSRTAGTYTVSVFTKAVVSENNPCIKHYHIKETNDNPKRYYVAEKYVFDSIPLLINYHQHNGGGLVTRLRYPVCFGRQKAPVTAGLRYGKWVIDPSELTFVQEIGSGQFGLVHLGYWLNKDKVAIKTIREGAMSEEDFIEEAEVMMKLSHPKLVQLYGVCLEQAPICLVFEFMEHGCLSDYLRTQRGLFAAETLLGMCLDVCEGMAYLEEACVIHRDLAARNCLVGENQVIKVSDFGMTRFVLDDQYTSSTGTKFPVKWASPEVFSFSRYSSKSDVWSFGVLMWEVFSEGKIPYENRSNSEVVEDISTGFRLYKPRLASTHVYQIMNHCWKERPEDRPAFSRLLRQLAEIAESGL
Experiment: ITK peptide phosphorylation assay (Caliper LabChip or LCMS)
Type: biochemical
Settings: Table 1, Examples 141-279
Outline: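 Ki values come from Morrison quadratic fits of activity versus inhibitor concentration, adjusted for ATP-competitive inhibition against ATP/Km,app. Substrate and phosphopeptide from purified ITK reactions were resolved either microfluidically (Caliper, EDTA stop) or by LC-MS MRM (TCA stop).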

Compound | Ki [nM]
CN(CCC(c1ccccc1)n1cc(NC(=O)c2n[nH]c3ccccc23)cn1)CC(F)F (stereo not shown) [Example 273, N-[1-[3-[2,2-difluoroethyl(meth-yl)amino]-1-phenyl-propyl]pyrazol-4-yl]-1H-indazole-3-carboxamide] | 8.3
CN(CCC(c1ccccc1)n1cc(NC(=O)c2n[nH]c3ccccc23)cn1)CC(F)F (stereo not shown) [Example 274, N-[1-[3-[2,2-difluoroethyl(meth-yl)amino]-1-phenyl-propyl]pyrazol-4-yl]-1H-indazole-3-carboxamide] | 84.8
CN(C)CC(c1ccccc1)n1cc(NC(=O)c2n[nH]c3ccccc23)cn1 (stereo not shown) [Example 275, N-[1-[2-(dimethylamino)-1-phenyl-ethyl]pyrazol-4-yl]-1H-indazole-3-carboxamide] | 7.83
CN(C)CC(c1ccccc1)n1cc(NC(=O)c2n[nH]c3ccccc23)cn1 (stereo not shown) [Example 276, N-[1-[2-(dimethylamino)-1-phenyl-ethyl]pyrazol-4-yl]-1H-indazole-3-carboxamide] | 152
CS(=O)(=O)CCC(c1ccccc1)n1cc(NC(=O)c2n[nH]c3ccccc23)cn1 (stereo not shown) [Example 277, N-[1-(3-methylsulfonyl-1-phenyl-propyl)pyrazol-4-yl]-1H-indazole-3-carboxamide] | 114
CN(C)CCC(c1ccccc1)n1cc(NC(=O)c2n[nH]c3cc(-c4cn[nH]c4)cnc23)cn1 (stereo not shown) [Example 278, N-[1-[3-(dimethylamino)-1-phenyl-propyl]pyrazol-4-yl]-6-(1H-pyrazol-4-yl)-1H-pyrazolo[4,3-b]pyridine-3-carboxamide] | 1.29
CN(C)CCC(c1ccccc1)n1cc(NC(=O)c2n[nH]c3cc(-c4cn[nH]c4)cnc23)cn1 (stereo not shown) [Example 279, N-[1-[3-(dimethylamino)-1-phenyl-propyl]pyrazol-4-yl]-6-(1H-pyrazol-4-yl)-1H pyrazolo[4,3-b]pyridine-3-carboxamide] | 36.7
